# Results taken from patent US20160297833A1, “THIENOPYRIMIDINES AS MKNK1 AND MKNK2 INHIBITORS” (BAYER PHARMA AKTIENGESELLSCHAFT, priority 2013, published 2016).
# Target: T1, human full-length MKNK1 (Homo sapiens, UniProt Q9BUB5, T385D)
# T1 construct: GST (N); purchased Carna Biosciences 02-145; host or cells: insect cells (baculovirus expression system)
# Experiment: MKNK1 kinase high ATP assay (TR-FRET)
# Type: biochemical
# Details: Table 1; MKNK1 kinase high ATP assay, 2 mM ATP; read-out: MKNK1 IC50
# Outline: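 Full-length human MKNK1 (T385D) preincubated 15 min at 22 °C with compound in HEPES pH 7.5/MgCl2/DTT buffer; reaction with 2 mM ATP (final) and 0.06 μM biotinylated peptide (final), 30 min at 22 °C.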
# T1 sequence (Q9BUB5 1-424 isoform Q9BUB5-2 T344D): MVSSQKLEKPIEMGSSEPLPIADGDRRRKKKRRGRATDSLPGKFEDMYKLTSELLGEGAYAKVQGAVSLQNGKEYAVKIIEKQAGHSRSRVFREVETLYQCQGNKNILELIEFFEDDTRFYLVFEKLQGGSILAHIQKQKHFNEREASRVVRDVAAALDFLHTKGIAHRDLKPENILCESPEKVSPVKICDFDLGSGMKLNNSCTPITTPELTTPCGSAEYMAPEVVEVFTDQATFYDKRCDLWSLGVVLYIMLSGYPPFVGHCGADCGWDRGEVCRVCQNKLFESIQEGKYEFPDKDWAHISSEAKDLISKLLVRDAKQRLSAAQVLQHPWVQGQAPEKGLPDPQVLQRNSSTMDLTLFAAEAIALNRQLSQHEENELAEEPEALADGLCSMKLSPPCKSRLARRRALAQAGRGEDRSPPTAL
row,IC50 [nM],Structure (SMILES)
1,0.4,"CC(C)Oc1cc2[nH]ncc2cc1Nc1ncnc2sc3c(c12)CC[C@H](C(=O)N1CC2(COC2)C1)C3 [Example 88, 2-Oxa-6-azaspiro[3.3]hept-6-yl[(7S)-4-{[6-(propan-2-yloxy)-1H-indazol-5-yl]amino}-5,6,7,8-tetrahydro[1]benzothieno[2,3-d]pyrimidin-7-yl]methanone]"
2,6,"CC(C)Oc1cc2[nH]ncc2cc1Nc1ncnc2sc3c(c12)CC[C@@H](C(=O)N1CC2(COC2)C1)C3 [Example 89, 2-Oxa-6-azaspiro[3.3]hept-6-yl[(7R)-4-{[6-(propan-2-yloxy)-1H-indazol-5-yl]amino}-5,6,7,8-tetrahydro[1]benzothieno[2,3-d]pyrimidin-7-yl]methanone]"
3,0.6,"CC(C)Oc1cc2[nH]ncc2cc1Nc1ncnc2sc3c(c12)CC[C@H](C(=O)N(C)CCO)C3 [Example 90, (7S)—N-(2-Hydroxyethyl)-N-methyl-4-{[6-(propan-2-yloxy)-1H-indazol-5-yl]amino}-5,6,7,8-tetrahydro[1]benzothieno[2,3-d]pyrimidine-7-carboxamide]"
4,0.1,"CC(C)Oc1cc2[nH]ncc2cc1Nc1ncnc2sc3c(c12)CC[C@H](C(=O)N(CCO)CCO)C3 [Example 91, (7S)—N,N-bis(2-Hydroxyethyl)-4-{[6-(propan-2-yloxy)-1H-indazol-5-yl]amino}-5,6,7,8-tetrahydro[1]benzothieno[2,3-d]pyrimidine-7-carboxamide]"
5,0.2,"CC(C)Oc1cc2[nH]ncc2cc1Nc1ncnc2sc3c(c12)CC[C@H](C(=O)N1C[C@H](O)[C@@H](O)C1)C3 [Example 92, [(3S,4S)-3,4-Dihydroxypyrrolidin-1-yl][(7S)-4-{[6-(propan-2-yloxy)-1H-indazol-5-yl]amino}-5,6,7,8-tetrahydro[1]benzothieno[2,3-d]pyrimidin-7-yl]methanone]"
6,0.1,"CC(C)Oc1cc2[nH]ncc2cc1Nc1ncnc2sc3c(c12)CC[C@H](C(=O)N1C[C@@H](O)[C@H](O)C1)C3 [Example 93, [(3R,4R)-3,4-Dihydroxypyrrolidin-1-yl][(7S)-4-{[6-(propan-2-yloxy)-1H-indazol-5-yl]amino}-5,6,7,8-tetrahydro[1]benzothieno[2,3-d]pyrimidin-7-yl]methanone]"
7,2.3,"CCCOc1cc2[nH]ncc2cc1Nc1ncnc2sc3c(c12)CC[C@H](C(=O)N1CC(C)(O)C1)C3 [Example 95, (3-Hydroxy-3-methylazetidin-1-yl){(7S)-4-[(6-propoxy-1H-indazol-5-yl)amino]-5,6,7,8-tetrahydro[1]benzothieno[2,3-d]pyrimidin-7-yl}methanone]"
8,0.3,"CCCN(C)C(=O)[C@H]1CCc2c(sc3ncnc(Nc4cc5cn[nH]c5cc4OC)c23)C1 [Example 97, (7S)-4-[(6-methoxy-1H-indazol-5-yl)amino]-N-methyl-N-propyl-5,6,7,8-tetrahydro[1]benzothieno[2,3-d]pyrimidine-7-carboxamide]"
9,24.5,"CN(C)C(=O)[C@H]1CCc2c(sc3ncnc(Nc4cc5cn[nH]c5cc4N4CCC4)c23)C1 [Example 102, (7S)-4-{[6-(Azetidin-1-yl)-1H-indazol-5-yl]amino}-N,N-dimethyl-5,6,7,8-tetrahydro[1]benzothieno[2,3-d]pyrimidine-7-carboxamide]"
10,1.3,"CN(C)C(=O)[C@H]1CCc2c(sc3ncnc(Nc4cc5cn[nH]c5cc4N4CCCC4)c23)C1 [Example 103, (7S)—N,N-Dimethyl-4-{[6-(pyrrolidin-1-yl)-1H-indazol-5-yl]amino}-5,6,7,8-tetrahydro[1]benzothieno[2,3-d]pyrimidine-7-carboxamide]"
11,0.6,"CN(C)C(=O)[C@H]1CCc2c(sc3ncnc(Nc4cc5cn[nH]c5cc4OCCN)c23)C1 [Example 108, (7S)-4-{[6-(2-Aminoethoxy)-1H-indazol-5-yl]amino}-N,N-dimethyl-5,6,7,8-tetrahydro[1]benzothieno[2,3-d]pyrimidine-7-carboxamide]"
12,76.3,"CN(C)C(=O)[C@H]1CCc2c(sc3ncnc(Nc4cc5cn[nH]c5cc4OCCN4CCCC4)c23)C1 [Example 112, (7S)—N,N-Dimethyl-4-({6-[2-(pyrrolidin-1-yl)ethoxy]-1H-indazol-5-yl}amino)-5,6,7,8-tetrahydro[1]benzothieno[2,3-d]pyrimidine-7-carboxamide]"
13,34.2,"C[C@@H]1COCCN1C(=O)[C@H]1CCc2c(sc3ncnc(Nc4cc5cn[nH]c5cc4OCCN(C)C)c23)C1 [Example 114, [(7S)-4-({6-[2-(Dimethylamino)ethoxy]-1H-indazol-5-yl}amino)-5,6,7,8-tetrahydro[1]benzothieno[2,3-d]pyrimidin-7-yl][(3R)-3-methylmorpholin-4-yl]methanone]"

# Further lines, the compound ahead of its results:
row,Structure (SMILES),IC50 [nM]
1,"CCCOc1cc2[nH]ncc2cc1Nc1ncnc2sc3c(c12)CC[C@H](C(=O)N(C)C)C3 [Example 94, (7S)—N,N-Dimethyl-4-[(6-propoxy-1H-indazol-5-yl)amino]-5,6,7,8-tetrahydro[1]benzothieno[2,3-d]pyrimidine-7-carboxamide]",4.8
2,"CN(C)C(=O)[C@H]1CCc2c(sc3ncnc(Nc4cc5cn[nH]c5cc4O)c23)C1 [Example 96, (7S)-4-[(6-Hydroxy-1H-indazol-5-yl)amino]-N,N-dimethyl-5,6,7,8-tetrahydro[1]benzothieno[2,3-d]pyrimidine-7-carboxamide]",0.7
3,"CN(C)C(=O)[C@H]1CCc2c(sc3ncnc(Nc4cc5cn[nH]c5cc4N(C)C)c23)C1 [Example 98, (7S)-4-{[6-(Dimethylamino)-1H-indazol-5-yl]amino}-N,N-dimethyl-5,6,7,8-tetrahydro[1]benzothieno[2,3-d]pyrimidine-7-carboxamide]",0.2
4,"CC(C)N(C)c1cc2[nH]ncc2cc1Nc1ncnc2sc3c(c12)CC[C@H](C(=O)N(C)C)C3 [Example 99, (7S)—N,N-Dimethyl-4-({6-[methyl(propan-2-yl)amino]-1H-indazol-5-yl}amino)-5,6,7,8-tetrahydro[1]benzothieno[2,3-d]pyrimidine-7-carboxamide]",0.3
5,"CN(C)C(=O)[C@H]1CCc2c(sc3ncnc(Nc4cc5cn[nH]c5cc4NCC(C)(C)O)c23)C1 [Example 100, (7S)-4-({6-[(2-Hydroxy-2-methylpropyl)amino]-1H-indazol-5-yl}amino)-N,N-dimethyl-5,6,7,8-tetrahydro[1]benzothieno[2,3-d]pyrimidine-7-carboxamide]",882
6,"CN(C)C(=O)[C@H]1CCc2c(sc3ncnc(Nc4cc5cn[nH]c5cc4N(C)CC(C)(C)O)c23)C1 [Example 101, (7S)-4-({6-[(2-Hydroxy-2-methylpropyl)(methyl)amino]-1H-indazol-5-yl}amino)-N,N-dimethyl-5,6,7,8-tetrahydro[1]benzothieno[2,3-d]pyrimidine-7-carboxamide]",9.1
7,"CN(C)C(=O)[C@H]1CCc2c(sc3ncnc(Nc4cc5cn[nH]c5cc4N4CCC(N(C)C)CC4)c23)C1 [Example 104, (7S)-4-({6-[4-(Dimethylamino)piperidin-1-yl]-1H-indazol-5-yl}amino)-N,N-dimethyl-5,6,7,8-tetrahydro[1]benzothieno[2,3-d]pyrimidine-7-carboxamide]",29.5
8,"CCCCN(C)C(=O)[C@H]1CCc2c(sc3ncnc(Nc4cc5cn[nH]c5cc4N4CCC(N(C)C)CC4)c23)C1 [Example 105, (7S)—N-Butyl-4-({6-[4-(dimethylamino)piperidin-1-yl]-1H-indazol-5-yl}amino)-N-methyl-5,6,7,8-tetrahydro[1]benzothieno[2,3-d]pyrimidine-7-carboxamide]",14.1
9,"CSc1cc2[nH]ncc2cc1Nc1ncnc2sc3c(c12)CC[C@H](C(=O)N(C)C)C3 [Example 106, (7S)—N,N-Dimethyl-4-{[6-(methylsulfanyl)-1H-indazol-5-yl]amino}-5,6,7,8-tetrahydro[1]benzothieno[2,3-d]pyrimidine-7-carboxamide]",4.6
10,"CN(C)C(=O)[C@H]1CCc2c(sc3ncnc(Nc4cc5cn[nH]c5cc4OCCN=[N+]=[N-])c23)C1 [Example 107, (7S)-4-{[6-(2-Azidoethoxy)-1H-indazol-5-yl]amino}-N,N-dimethyl-5,6,7,8-tetrahydro[1]benzothieno[2,3-d]pyrimidine-7-carboxamide]",10
11,"CN(C)CCOc1cc2[nH]ncc2cc1Nc1ncnc2sc3c(c12)CC[C@H](C(=O)N(C)C)C3 [Example 109, (7S)-4-({6-[2-(Dimethylamino)ethoxy]-1H-indazol-5-yl}amino)-N,N-dimethyl-5,6,7,8-tetrahydro[1]benzothieno[2,3-d]pyrimidine-7-carboxamide]",16.5
12,"CN(C)C(=O)[C@H]1CCc2c(sc3ncnc(Nc4cc5cn[nH]c5cc4OCCCN=[N+]=[N-])c23)C1 [Example 110, (7S)-4-{[6-(3-Azidopropoxy)-1H-indazol-5-yl]amino}-N,N-dimethyl-5,6,7,8-tetrahydro[1]benzothieno[2,3-d]pyrimidine-7-carboxamide]",2.3
13,"CN(C)C(=O)[C@H]1CCc2c(sc3ncnc(Nc4cc5cn[nH]c5cc4OCCCN)c23)C1 [Example 111, (7S)-4-{[6-(3-Aminopropoxy)-1H-indazol-5-yl]amino}-N,N-dimethyl-5,6,7,8-tetrahydro[1]benzothieno[2,3-d]pyrimidine-7-carboxamide]",1.4
14,"CN(C)C(=O)[C@H]1CCc2c(sc3ncnc(Nc4cc5cn[nH]c5cc4OCCN4CCCCC4)c23)C1 [Example 113, (7S)—N,N-Dimethyl-4-({6-[2-(piperidin-1-yl)ethoxy]-1H-indazol-5-yl}amino)-5,6,7,8-tetrahydro[1]benzothieno[2,3-d]pyrimidine-7-carboxamide]",634
15,"C[C@@H]1COCCN1C(=O)[C@H]1CCc2c(sc3ncnc(Nc4cc5cn[nH]c5cc4OCCN4CCCC4)c23)C1 [Example 115, [(3R)-3-Methylmorpholin-4-yl][(7S)-4-({6-[2-(pyrrolidin-1-yl)ethoxy]-1H-indazol-5-yl}amino)-5,6,7,8-tetrahydro[1]benzothieno[2,3-d]pyrimidin-7-yl]methanone]",71.5

# Same assay, conditions: Table 2; ratio of the IC50-value of an R-enantiomer and its corresponding S-enantiomer
row,Structure (SMILES),Activity-Ratio MKNK1
1,"CC(C)Oc1cc2[nH]ncc2cc1Nc1ncnc2sc3c(c12)CC[C@H](C(=O)N1CC2(COC2)C1)C3 [Example 88, 2-Oxa-6-azaspiro[3.3]hept-6-yl[(7S)-4-{[6-(propan-2-yloxy)-1H-indazol-5-yl]amino}-5,6,7,8-tetrahydro[1]benzothieno[2,3-d]pyrimidin-7-yl]methanone]",15.0
